Patent US6403788B1, “Non-genotoxic metalloporphyrins as synthetic catalytic scavengers of reactive oxygen species” (Eukarion, Inc., priority 2000, dated 2002)

What was measured:
[1] = Peroxidase activity, ABTS oxidation; format: biochemical; conditions: 10 μM compound, 200 μM hydrogen peroxide, 500 μM ABTS, pH 8.1, 740 nm
Method: Peroxidase activity was measured by incubating 10 μM compound, 200 μM hydrogen peroxide and 500 μM ABTS in 50 mM sodium phosphate, pH 8.1. The rate of ABTS oxidation was monitored at 740 nm and initial rates (change in absorbance per min.) determined.

[2] = Superoxide dismutase activity, xanthine-xanthine oxidase / cytochrome C; format: biochemical; conditions: reciprocal of IC50; xanthine 60 μM, xanthine oxidase 0.009 units/ml, cytochrome C 27.8 μM
Method: Superoxide Dismutase Activity was measured by incubating the compound with a superoxide generating system (Xanthine, 60 μM-Xanthine Oxidase, 0.009 units/ml) and a detector molecule (Cytochrome C, 27.8 μM). Upon reacting with a molecule of superoxide, Cytochrome C undergoes a spectrum-shift which can be detected as an increase in absorbance at 550 nm. In this assay procedure, the reactant concentrations were adjusted to give a reaction rate close to 0.1 AU/min. at 2-3 min. after the reaction began. Addition of compounds with Superoxide Dismutase activity reduce the rate of absorbance change. Compounds were assayed at several concentrations (typically at 0, 2, 4, and 8 μM) and the resulting rates were graphed and fitted to a linear regression formula. The linear regression formula was then solved to determine the concentration of compound required to reduce the reaction rate to 50% of the rate without compound present (IC50).

[3] = system: ΦX 174 DNA Plasmid (Form I); assay: Cleavage of ΦX 174 DNA plasmid (form I), activation with ascorbate in the presence of air; format: biochemical, phage ΦX 174; conditions: DNA 3.5 nM, Asc. 1 mM
Text: (§1) The DNA cleavage activity was quantified in terms of number of single-strand breaks per DNA molecule according to the equation […], Io=% form I (supercoiled DNA) in the DNA control, and I=% form I in the experiment (see Bernadou et al, Biochemistry, 28: 7268-7275, (1989)). This assay is very sensitive and is able to detect very low levels of DNA activity. S values less than S=1.0 are indicative of very low DNA cleavage activity when the compounds are at a concentration of equal to or less than 1000 nM and KHSO5 is present at a concentration of equal to or less than 100 μM.
(§2) ΦX 174 DNA digestion conditions for standard experiments were as follows: commercially available DNA was diluted to 50 μg/mL in phosphate buffer (10 mM, pH 7.5). The reaction involved 5 μL of ΦX 174 DNA (50 μg/mL, 74.8 μM in base pairs), 5 μL of 40 mM phosphate buffer, pH 7.5 with 400 mM NaCl, 5 μL of metalloporphyrin in double-distilled water or 5 μL of iron-bleomycin complex in double-distilled water, and 5 μL of KHSO5 or 5 μL of H2O2 or 5 μL of ascorbate in double-distilled water. Preincubation of DNA and metalloporphyrins or iron-bleomycin complex was performed for about 15 min. The digestion time in the presence of KHSO5 was 10 min, of H2O2 was 30 min and of ascorbate was 30 min at 20° C. DNA cleavage was monitored by agarose gel electrophoresis. Reactions with KHSO5 were first quenched by 2 μL of 100 mM Hepes buffer, pH 8. In all cases, reactions were quenched by 5 μL of a stopping reagent. The stopping reagent consisted of 250 mM Hepes buffer, pH 7.4, containing 75% glycerol and 0.05% bromophenol blue. Reaction mixtures were then run in 0.8% agarose slab horizontal gel containing ethidium bromide […], at constant current (25 mA for 15h), in 89 mM Tris-borate buffer and 2.5 mM EDTA pH 8.3. Bands were located by WV light (254 nm), photographed, and quantitated by microdensitometry. The correction coefficient 1.47±0.30 was used for decreased stainability of form I DNA vs form II DNA and form III DNA.

[4] = system: CBA/J female mice, oxazolone-induced inflammatory ear edema; assay: Delayed type hypersensitivity: oxazolone-induced ear edema; format: in vivo
Text: CBA/J female mice (Jackson Labs, Bar Harbor, ME) 7 weeks of age were pre-sensitized with 3% oxazolone (Sigma Chemical Co., St. Louis, Mo.) in 99.9% acetone, on the abdomen. After 8 days, the mice were challenged with 1.2% oxazolone topically on one ear to induce an inflammatory edema. Either Structural Formula V, Structural Formula IV at a dose of 7 nmoles/ear each, or ethanol, i.e. vehicle control (eight mice per study group), was applied topically to the ear immediately after the oxazolone challenge. Ear edema was measured by comparing the tissue water content (the wet weight minus the dry weight) of the challenged ear to that of the control ear. The percent edema (% water in the right ear-left ear) in the vehicle control was 6.5% and 2.1% and 3.9% for Structural Formula V and Structural Formula IV, respectively at a dose of 7 nmoles/ear.

[5] = system: ΦX 174 DNA Plasmid (Form I); assay: Cleavage of ΦX 174 DNA plasmid (form I), activation with H2O2; format: biochemical, phage ΦX 174; conditions: for S (single-strand breaks per DNA molecule) / form % I / form % II / form % III: DNA 3.5 nM, H2O2 1 mM
Text: as §1, §2

[6] = system: ΦX 174 DNA Plasmid (Form I); assay: Cleavage of ΦX 174 DNA plasmid (form I), compound alone or activated with KHSO5; format: biochemical, phage ΦX 174; conditions: for S (single-strand breaks per DNA molecule) / form % I / form % II / form % III: DNA 3.5 nM
Text: as §1, §2

Which “PEROXIDASE Initial Rate” value [1] does the source give for CC[NH+](CC)CCNS(=O)(=O)c1c(C)cc(C)c(C2=C3C=CC4=[N+]3[Fe-]35[n]6c2ccc6C(c2c(C)cc(C)c(S(=O)(=O)NCC[NH+](CC)CC)c2C)=C2C=CC(=[N+]23)C(c2c(C)cc(C)c(S(=O)(=O)NCC[NH+](CC)CC)c2C)=c2ccc([n]25)=C4c2c(C)cc(C)c(S(=O)(=O)NCC[NH+](CC)CC)c2C)c1C.[Cl-].[Cl-].[Cl-].[Cl-].[Cl-] [Structural Formula V, meso-tetrakis[3-(N-(2-(N,N-diethylammonio)ethyl)aminosulfonyl)-2,4,6-trimethylphenyl]porphyrinato diaqua-iron (III) pentachloride] here?
The value was 0.0443 change in absorbance per min.

And the “Cyt C SOD 1/(IC50, μM)” value [2]?
Its value is 0.067 µM⁻¹.

And the “S (single-strand breaks per DNA molecule)” value ([3]; compound 10 nM)?
Its value is 0.11 SSBs.

And the “form % I” value ([3]; compound 10 nM)?
The value was 87%.

And the “form % II” value ([3]; compound 10 nM)?
Its value is 13%.

What about the “form % III” value ([3]; compound 10 nM) of the same compound?
The value was 0%.

And the “S (single-strand breaks per DNA molecule)” value ([3]; compound 100 nM)?
The value was 0.34 SSBs.

And the “form % I” value ([3]; compound 100 nM)?
The value was 75%.

What about the “form % II” value ([3]; compound 100 nM) of the same compound?
Its value is 25%.

What about the “form % III” value ([3]; compound 100 nM) of the same compound?
Its value is 0%.

What about the “S (single-strand breaks per DNA molecule)” value ([3]; compound 1 μM) of the same compound?
Its value is 2.76 SSBs.

What about the “form % I” value ([3]; compound 1 μM) of the same compound?
Its value is 29%.

And the “form % II” value ([3]; compound 1 μM)?
Its value is 71%.

And the “form % III” value ([3]; compound 1 μM)?
Its value is 0%.

What about the “effect on edema compared to vehicle” value ([4]; 7 nmoles/ear topically) of the same compound?
Its value is “effective in reducing the percentage of edema”.

What about the “percent edema (% water in the right ear-left ear)” value ([4]; 7 nmoles/ear topically immediately after oxazolone challenge, vehicle control 6.5%) of the same compound?
Its value is 2.1%.

What about the “S (single-strand breaks per DNA molecule)” value ([5]; compound 10 nM) of the same compound?
The value was 0.01 SSBs.

What about the “form % I” value ([5]; compound 10 nM) of the same compound?
Its value is 94%.

What about the “form % II” value ([5]; compound 10 nM) of the same compound?
The value was 6%.

And the “form % III” value ([5]; compound 10 nM)?
Its value is 0%.

And the “S (single-strand breaks per DNA molecule)” value ([5]; compound 100 nM)?
The value was 0 SSBs.

What about the “form % I” value ([5]; compound 100 nM) of the same compound?
The value was 95%.

And the “form % II” value ([5]; compound 100 nM)?
The value was 5%.

And the “form % III” value ([5]; compound 100 nM)?
Its value is 0%.

What about the “S (single-strand breaks per DNA molecule)” value ([5]; compound 1 μM) of the same compound?
Its value is 0.16 SSBs.

What about the “form % I” value ([5]; compound 1 μM) of the same compound?
Its value is 84%.

What about the “form % II” value ([5]; compound 1 μM) of the same compound?
The value was 16%.

What about the “form % III” value ([5]; compound 1 μM) of the same compound?
Its value is 0%.

What about the “DNA cleavage activity in H2O2 medium” value ([5]; H2O2 medium) of the same compound?
The value was “does not exhibit significant DNA cleavage activity”.

And the “S (single-strand breaks per DNA molecule)” value ([6]; compound 10 nM, KHSO5 100 μM)?
The value was 0.01 SSBs.

And the “form % I” value ([6]; compound 10 nM, KHSO5 100 μM)?
Its value is 91%.

What about the “form % II” value ([6]; compound 10 nM, KHSO5 100 μM) of the same compound?
The value was 9%.

And the “form % III” value ([6]; compound 10 nM, KHSO5 100 μM)?
The value was 0%.

And the “S (single-strand breaks per DNA molecule)” value ([6]; compound 10 nM, without KHSO5)?
Its value is 0 SSBs.

What about the “form % I” value ([6]; compound 10 nM, without KHSO5) of the same compound?
Its value is 92%.

And the “form % II” value ([6]; compound 10 nM, without KHSO5)?
The value was 8%.

What about the “form % III” value ([6]; compound 10 nM, without KHSO5) of the same compound?
The value was 0%.

What about the “S (single-strand breaks per DNA molecule)” value ([6]; compound 100 nM, KHSO5 100 μM) of the same compound?
Its value is 0.03 SSBs.

And the “form % I” value ([6]; compound 100 nM, KHSO5 100 μM)?
The value was 90%.

And the “form % II” value ([6]; compound 100 nM, KHSO5 100 μM)?
The value was 10%.

And the “form % III” value ([6]; compound 100 nM, KHSO5 100 μM)?
Its value is 0%.

And the “S (single-strand breaks per DNA molecule)” value ([6]; compound 100 nM, without KHSO5)?
Its value is 0 SSBs.

What about the “form % I” value ([6]; compound 100 nM, without KHSO5) of the same compound?
Its value is 92%.

And the “form % II” value ([6]; compound 100 nM, without KHSO5)?
The value was 8%.

And the “form % III” value ([6]; compound 100 nM, without KHSO5)?
Its value is 0%.

And the “S (single-strand breaks per DNA molecule)” value ([6]; compound 1 μM, KHSO5 100 μM)?
Its value is 0.07 SSBs.

And the “form % I” value ([6]; compound 1 μM, KHSO5 100 μM)?
The value was 87%.

What about the “form % II” value ([6]; compound 1 μM, KHSO5 100 μM) of the same compound?
Its value is 13%.

And the “form % III” value ([6]; compound 1 μM, KHSO5 100 μM)?
Its value is 0%.

And the “S (single-strand breaks per DNA molecule)” value ([6]; compound 1 μM, without KHSO5)?
Its value is 0.07 SSBs.

And the “form % I” value ([6]; compound 1 μM, without KHSO5)?
Its value is 87%.

What about the “form % II” value ([6]; compound 1 μM, without KHSO5) of the same compound?
Its value is 13%.

What about the “form % III” value ([6]; compound 1 μM, without KHSO5) of the same compound?
The value was 0%.

What about the “DNA cleavage activity in oxidative medium” value ([6]; oxidative medium (KHSO5)) of the same compound?
The value was “do not exhibit any significant DNA cleavage activity”.
